Laboratory results: patent US20250281518A1, “METHODS AND AGENTS FOR PREVENTING SKELETAL AGING, OSTEOPOROSIS AND OBESITY” (The Regents of the University of California, priority 2022, published 2025)
Entries after “also recorded” stand apart in the source; their conditions may differ.

Legend:
[1] = Stability of water solutions; assay type: physicochemical; settings: water solution
[2] = test system: OVX C57BL/6J female mice; assay: Ovariectomy (OVX)-induced osteoporosis and obesity in mice, dosing in drinking water over two months; assay type: in vivo, mouse
Description: Aging-related bone loss and osteoporosis frequently occur in women after menopause. To mimic the pathogenesis of osteoporotic bone loss, we performed ovariectomy (OVX) on female mice to induce estrogen deficiency. […] Mice weight on average 20 g at the start of the experiment. […] Dosing was over two months.
(§1) For the mice on high fat diets, the starting animal weights were about 25 grams.
(§2) We monitored mouse body weight, food and water consumption on a weekly basis for two months. Nuclear magnetic resonance scanner was used to assess lean mass and fat mass composition. Serum chemistries were analyzed in UCLA DLAM facility. Liver and adipose tissues were harvested for histology and histomorphometric analyses. Femur, tibia and mandible were subjected to micro-CT scanning and reconstruction. […] One-way ANOVA was performed to quantify differences among all the groups.

[3] = test system: HFD-fed mice; assay: High fat diet (HFD)-induced obesity and bone loss in mice, dosing in drinking water for three months; assay type: in vivo, mouse
Description: as §1
as §2, with “Mice were given a regular diet or high fat diet (HFD) for three months beginning at age of 8 weeks. […] Body” for “We monitored mouse body”, “consumption were monitored” for “consumption”, “three” for “two”, “composition.” for “composition. Serum chemistries were analyzed in UCLA DLAM facility.”

[4] = test system: aged C57BL/6J male mice; assay: Bone and adipose metabolism in aged mice, dosing in drinking water from 18 months of age for six months; assay type: in vivo, mouse; settings: for body weight: after six months treatment
Method: as §1
Mice weighed 40 g on average at the start of the study. Body weight, food and water consumption were monitored on a weekly basis. Nuclear magnetic resonance scanner was used to assess lean mass and fat mass composition. Liver and adipose tissues were harvested for histology and histomorphometric analyses. Femur, tibia and mandible were subjected to μCT scanning and reconstruction. […] One-way ANOVA was performed to quantify differences among all the groups.

[5] = Solubility in water; assay type: physicochemical
[6] = 100 mg/kg/day alone, compared with 500 mg/kg/day and combination groups

Row | solubility in water [5] | Molecule | stability of the water solutions [1] | weight and size of liver ([2]; 100 mg/kg/day alone, OVX mice) | OVX-induced body weight gain ([2]; 100 mg/kg/day alone, drinking water, two months) | OVX-induced mouse body weight gain ([2]; 500 mg/kg/day alone, drinking water, two months) | fat mass (nuclear magnetic resonance) ([3]; 100 mg/kg/day alone, HFD) | weight gains induced by HFD ([3]; low concentration (100 mg/kg/day) alone, three months) | pgWAT weight gain induced by HFD ([3]; low concentration alone) | body weight ([4]; 100 mg/kg/day alone, compared with control) | fat mass and lean mass (nuclear magnetic resonance) [4, 6] | weight and size of liver [4, 6] | weight of pgWAT [4, 6] | body weight ([4]; 500 mg/kg/day alone) | weight and size of liver ([4]; 500 mg/kg/day alone, comparison is worded from the side of control and 100 mg/kg/day groups)
1 | – | alpha-ketoglutarate [α-KG] | highly stable | – | – | – | – | – | – | – | – | – | – | – | –
2 | dissolve well in water | NC(=O)c1ccc[n+]([C@@H]2O[C@H](COP(=O)([O-])O)[C@@H](O)[C@H]2O)c1 [NMN, 3-carbamoyl-1-[5-O-(hydroxyphosphinato)-β-D-ribofuranosyl]pyridinium] | highly stable | did not significantly affect | ineffective; also recorded: did not significantly inhibit | significantly inhibited | could not affect | did not significantly reduce | did not significantly inhibit | increased at a similar rate | significantly higher fat mass and lower lean mass | significantly higher | significantly higher | decreased significantly | significantly higher in control, 100 mg/kg/day α-KG, and 100 mg/kg/day NMN groups compared with
